Assays:
PPARγ-RXRα heterodimer = biological target: T1, PPARγ-RXRα heterodimer (Homo sapiens, UniProt P37231); assay: PPARγ-RXRα heterodimer ligand activity, luciferase reporter in PPARγ:RXRα:4ERPP/CHO-K1 cells (Test Example 3); assay type: cell-based; details: 18-48 hours, concentration for 50% of the maximum fold induction
T1 construct: expressed in transfected cells; host or cells: CHO-K1
T1 sequence (P37231 1-477 isoform P37231-2): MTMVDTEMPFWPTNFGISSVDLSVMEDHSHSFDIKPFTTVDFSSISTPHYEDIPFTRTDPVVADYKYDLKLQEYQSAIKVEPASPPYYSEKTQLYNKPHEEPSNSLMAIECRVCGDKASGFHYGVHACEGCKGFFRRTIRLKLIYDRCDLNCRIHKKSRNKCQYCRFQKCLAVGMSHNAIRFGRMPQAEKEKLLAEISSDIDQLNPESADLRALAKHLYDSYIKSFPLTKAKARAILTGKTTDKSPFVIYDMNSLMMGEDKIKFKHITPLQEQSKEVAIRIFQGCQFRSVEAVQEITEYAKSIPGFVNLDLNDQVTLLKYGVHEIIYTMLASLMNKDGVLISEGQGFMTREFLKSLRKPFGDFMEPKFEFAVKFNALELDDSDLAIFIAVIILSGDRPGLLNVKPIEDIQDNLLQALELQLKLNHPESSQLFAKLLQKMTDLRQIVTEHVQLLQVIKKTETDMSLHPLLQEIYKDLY
T1 sequence (P19793 1-462 partner): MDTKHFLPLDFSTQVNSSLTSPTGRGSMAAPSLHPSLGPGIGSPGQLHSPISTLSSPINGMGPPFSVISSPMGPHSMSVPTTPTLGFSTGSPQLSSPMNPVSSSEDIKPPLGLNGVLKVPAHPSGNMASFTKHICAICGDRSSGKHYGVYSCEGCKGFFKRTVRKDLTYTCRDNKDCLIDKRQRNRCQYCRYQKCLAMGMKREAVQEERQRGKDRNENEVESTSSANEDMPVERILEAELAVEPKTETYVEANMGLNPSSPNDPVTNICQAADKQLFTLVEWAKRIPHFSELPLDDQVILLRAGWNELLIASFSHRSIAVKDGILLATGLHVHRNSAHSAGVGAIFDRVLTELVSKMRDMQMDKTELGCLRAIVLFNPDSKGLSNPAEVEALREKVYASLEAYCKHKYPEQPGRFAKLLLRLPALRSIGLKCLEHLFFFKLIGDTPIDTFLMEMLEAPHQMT
Experimental: A PPARγ: RXRα: 4ERPP/CHO-K1 cells obtained in Reference Example 8a described later were cultured in HAM F12 medium (produced by Life Technologies, Inc., USA) containing 10% Fetal bovine serum (produced by Life Technologies, Inc., USA) and then inoculated to a 96-well white plate (produced by Corning Costar Corporation, USA) at the density of 2×10^4 cells/well, and cultured in a CO2 gas incubator at 37° C. overnight.
After removing the medium from 96 well white plate, 80 μl of HAM F12 medium containing 0.1% fatty acid-free bovine serum albumin (BSA) and 20 μl of test compound were added, which was cultured in a CO2 gas incubator at 37° C. for 18-48 hours. After removing the medium, 40 μl of PIKKAGENE 7.5 (produced by Wako Pure Chemical Industries, Ltd.) diluted twice with HBSS (HANKS' BALANCED SALT SOLUTION)(produced by BIO WHITTAKER Inc., USA), was added. After stirring, the luciferase activity was determined using 1420 ARVO Multilabel Counter (produced by PerkinElmer Inc., USA).
A fold induction was calculated based on the luciferase activity of each test compound by taking the luciferase activity in the non-treatment group as 1. The values of the test compound concentration and the fold induction were analyzed using PRISM (produced by GraphPad Software Inc. USA) to calculate the EC50 values, the effective concentration of a test compound for 50% of the maximum fold induction.
After a CHO-K1 cell cultured in a 150 cm^2 cell culture flask (750 ml)(produced by Corning Costar Corporation, USA) containing HAM F12 medium (produced by Life Technologies, Inc., USA) supplemented with 10% Fetal Bovine Serum (produced by Life Technologies, Inc., USA) was scraped by treating with 0.5 g/L trypsin-0.2 g/L EDTA (ethylenediaminetetraacetic acid) (produced by Life Technologies, Inc., USA), the cell was washed with PBS (phosphate-buffered saline) (produced by Life Technologies, Inc., USA), centrifuged (1000 rpm, 5 minutes), and then suspended in PBS. Subsequently, a DNA was introduced into the cell under the condition shown below using GENE PULSER (produced by Bio-Rad Laboratories, USA).
Namely, to a cuvette having a 0.4 cm gap, added were 8×10^6 cells and 10 μg of plasmid pVgRXR2-hPPARγ obtained in Reference Example 7a and 10 μg of reporter plasmid pGL3-4ERPP-TK neo obtained in Reference Example 5a, which was subjected to electroporation at the voltage of 0.25 kV under the capacitance of 960 μF. Subsequently, the cell was transferred into a HAM F12 medium containing 10% Fetal Bovine Serum and cultured for 24 hours and then the cell was scraped again and centrifuged, and then suspended in HAM F12 medium containing 10% Fetal Bovine Serum supplemented with 500 μg/ml of GENETICIN (produced by Life Technologies, Inc., USA) and 250 μg/ml of ZEOCIN (produced by Invitrogen, USA). The obtained suspension was diluted to the density of 10^4 cells/ml and inoculated to a 96-well plate (produced by Corning Costar Corporation, USA), which was cultured in a CO2 gas incubator at 37° C., whereby obtaining a GENETICIN- and ZEOCIN-resistant transformant.
Subsequently, after the transformant cell line thus obtained was cultured in a 24-well plate (produced by Corning Costar Corporation, USA), selected was a cell line in which the luciferase was expressed and induced, i.e., PPARγ:RXRα:4ERPP/CHO-K1 cell by addition of 10 μM of pioglitazone hydrochloride.

PPARδ-RXRα heterodimer = biological target: T2, PPARδ-RXRα heterodimer (Homo sapiens, UniProt Q03181); assay: PPARδ-RXRα heterodimer ligand activity, luciferase reporter in COS-1 transformant (Test Example 4); assay type: cell-based; details: COS-1 transformant (hPPARδ, hRXRα, reporter), 36-48 hours, concentration for 50% of the maximum fold induction
T2 construct: expressed in transfected cells; host or cells: COS-1
T2 sequence (Q03181 1-441): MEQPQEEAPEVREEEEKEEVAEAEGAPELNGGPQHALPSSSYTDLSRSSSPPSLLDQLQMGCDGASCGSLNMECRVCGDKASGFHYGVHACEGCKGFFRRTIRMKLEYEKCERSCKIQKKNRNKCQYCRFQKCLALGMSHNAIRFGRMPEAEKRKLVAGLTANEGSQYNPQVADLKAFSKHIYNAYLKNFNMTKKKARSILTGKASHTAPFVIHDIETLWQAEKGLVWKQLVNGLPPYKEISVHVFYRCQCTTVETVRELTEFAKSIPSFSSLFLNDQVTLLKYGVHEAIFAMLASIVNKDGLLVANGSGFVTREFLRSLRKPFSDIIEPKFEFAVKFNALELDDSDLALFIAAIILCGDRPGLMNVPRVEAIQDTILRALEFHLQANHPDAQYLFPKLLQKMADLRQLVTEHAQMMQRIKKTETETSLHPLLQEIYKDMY
T2 sequence (P19793 1-462 partner): T1 sequence (P19793 1-462 partner)
In short: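 COS-1 cells transiently co-transfected with human PPARδ, human RXRα, PPRE-luciferase reporter and pRL-tk, then exposed to compound 36-48 h at 37 °C in DMEM with 0.1% fatty acid-free BSA. Luciferase read as fold induction over untreated; EC50 at 50% of maximal fold induction.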

Row | EC50 (PPARγ-RXRα heterodimer) [nM] | melting point [°C] | EC50 (PPARδ-RXRα heterodimer) [nM] | Compound
1 | 21 | 119 to 121 | – | CCCc1nn(-c2ccc(C(F)(F)F)cn2)cc1CCCCn1cc(CCC(=O)O)c(-c2ccc(F)cc2)n1 [Example 77, 3-[3-(4-fluorophenyl)-1-(4-{3-propyl-1-[5-(trifluoromethyl)-2-pyridinyl]-1H-pyrazol-4-yl}butyl)-1H-pyrazol-4-yl]propanoic acid]
2 | 42 | 134 to 135 | – | COc1cccc(CC(=O)O)c1OCCCc1cn(-c2ccc(C(F)(F)F)cn2)nc1-c1ccccc1 [Example 196]
3 | 30 | 106 to 107 | – | CCCCc1nn(-c2ccc(C(F)(F)F)cn2)cc1CCCOc1ccccc1CC(=O)O [Example 198, [2-(3-{3-butyl-1-[5-(trifluoromethyl)-2-pyridyl]-1H-pyrazol-4-yl}propoxy)phenyl]acetic acid]
4 | 16 | 149 to 150 | – | O=C(O)Cc1cccc(F)c1OCCCc1cn(-c2ccc(C(F)(F)F)cn2)nc1C1CCCCC1 [Example 210, [2-(3-{3-cyclohexyl-1-[5-(trifluoromethyl)-2-pyridyl]-1H-pyrazol-4-yl}propoxy)-3-fluorophenyl]acetic acid]
5 | – | 109 to 110 | 5.5 | CCCc1nn(-c2ccc(C(F)(F)F)cn2)cc1CCCOc1cccc(CC(=O)O)c1F [Example 258, [2-fluoro-3-(3-{3-propyl-1-[5-(trifluoromethyl)-2-pyridyl]-1H-pyrazol-4-yl}propoxy)phenyl]acetic acid]
6 | 99 | 161 to 162 | – | COc1cccc(CC(=O)O)c1OCCCc1cn(-c2ccc([N+](=O)[O-])cn2)nc1C(C)C [Example 270, (3-methoxy-2-{3-[3-isopropyl-1-(5-nitro-2-pyridyl)-1H-pyrazol-4-yl]propoxy}phenyl)acetic acid]
7 | 30 | – | – | COc1cccc(CC(=O)O)c1OCCCc1cn(-c2ccc(C#N)cn2)nc1C(C)C [Example 271, (2-{3-[1-(5-cyano-2-pyridyl)-3-isopropyl-1H-pyrazol-4-yl]propoxy}-3-methoxyphenyl)acetic acid]
8 | 90 | 125 to 126 | – | COc1cccc(CC(=O)O)c1OCCCc1cn(-c2ccc(F)cn2)nc1C(C)C [Example 273, (2-{3-[1-(5-fluoro-2-pyridyl)-3-isopropyl-1H-pyrazol-4-yl]propoxy}-3-methoxyphenyl)acetic acid]
9 | 36 | 124 to 125 | – | COc1ccc(-n2cc(CCCOc3c(CC(=O)O)cccc3OC)c(C(C)C)n2)nn1 [Example 277, (3-methoxy-2-{3-[1-(6-methoxypyridazin-3-yl)-3-isopropyl-1H-pyrazol-4-yl]propoxy}phenyl)acetic acid]
10 | – | 134 to 135 | 6 | COc1cc(CC(=O)O)ccc1OCCCc1cn(-c2ccc(C(F)(F)F)cn2)nc1C(C)C [Example 278, [3-methoxy-4-(3-{1-[5-(trifluoromethyl)-2-pyridyl]-3-isopropyl-1H-pyrazol-4-yl}propoxy)phenyl]acetic acid]
11 | – | 118 to 119 | 5.1 | COc1cc(CCC(=O)O)ccc1OCCCc1cn(-c2ccc(C(F)(F)F)cn2)nc1C(C)C [Example 279, 3-[3-methoxy-4-(3-{1-[5-(trifluoromethyl)-2-pyridyl]-3-isopropyl-1H-pyrazol-4-yl}propoxy)phenyl]propanoic acid]
12 | 17 | 156 to 157 | – | CCOc1cccc(CC(=O)O)c1OCCCc1cn(-c2ccc(C(F)(F)F)cn2)nc1C1CCCCC1 [Example 306, [2-(3-{3-cyclohexyl-1-[5-(trifluoromethyl)-2-pyridinyl]-1H-pyrazol-4-yl}propoxy)-3-ethoxyphenyl]acetic acid]
13 | 23 | 140 to 141 | – | COc1cccc(CC(=O)O)c1OCCCc1cn(-c2ccc(C(F)(F)F)cn2)nc1C1CCCCC1 [Example 307, [2-(3-{3-cyclohexyl-1-[5-(trifluoromethyl)-2-pyridinyl]-1H-pyrazol-4-yl}propoxy)-3-methoxyphenyl]acetic acid]
14 | 74 | 109 to 110 | – | CCCCc1nn(-c2ccc(C(F)(F)F)cn2)cc1CCCOc1nn(CC)cc1CC(=O)O [Example 334, [3-(3-{3-butyl-1-[5-(trifluoromethyl)-2-pyridinyl]-1H-pyrazol-4-yl}propoxy)-1-ethyl-1H-pyrazol-4-yl]acetic acid]

— US20060148858A1, “1, 2-Azole derivatives with hypoglycemic and hypolipidemic activity” (priority 2002, published 2006)
